Measurements published in patent US8722723B2, “Aromatic amide derivative” (Research Foundation Itsuu Laboratory, priority 2008, dated 2014).

What was measured:
luciferase (Luc) = assay: Reporter assay: Hela cells transfected with human RORα1 expression vector and luciferase (Luc) reporter vector; Luc activity corrected with β-Gal activity; format: cell-based, firefly; set-up: key: β-Gal-corrected Luc activity; smaller = inhibition, larger = promotion; conditions: human RORα1 expression vector, rev-DR2/TK-Luc reporter, about 1 day, smaller number = inhibitory, larger = promoting
Procedure: The reporter assay was used, in which Hela cells transfected with each of a pcDNA3 vector incorporated with the human RORα1 so that the gene can be expressed in animal cells as an expression vector, and a pGL3 promoter vector of which SV40 promoter was replaced with TK promoter as a luciferase expression reporter vector were used.
The Hela cells were placed at a density of 2×10^4 cells/0.1 mL/well on a 96-well cell culture plate (FALCON) by using 10% FBS-DMEM. On the next day, the human RORα1 expression vector, the reporter vector incorporated with 3 copies of rev-DR2 sequences and the HSV thymidine kinase promoter at a position upstream from the luciferase (Luc) gene, and a β-galactosidase (β-Gal) expression vector for control were introduced into the cells by using a transfection reagent (Fugene6, Roche). On the next day, the medium was replaced with 5% FBS-DMEM containing a test compound diluted at a prescribed concentration, after about 1 day, the cell supernatant was removed, then the cells were lysed (Passive Lysis buffer, Promega), the Luc substrate (PicaGene, Toyo Ink) was added to a part of the lysed cells, and the activity of produced Luc was measured as luminescence intensity. Further, the β-Gal activity was measured as intensity of fluorescence generated when 4-methylumbelliferyl β-D-galactoside was added as a substrate, and the activity of Luc corrected for the transfection efficiency with the β-Gal activity was used as the index for evaluation. A smaller number indicates inhibitory action, and a larger number indicates promoting action.

| SMILES | melting point | activity of Luc corrected for the transfection efficiency with the β-Gal activity (luciferase (Luc); test compound 1 μM) | activity of Luc corrected for the transfection efficiency with the β-Gal activity (luciferase (Luc); test compound 10 μM) | activity of Luc corrected for the transfection efficiency with the β-Gal activity (luciferase (Luc); test compound 0.01 μM) | activity of Luc corrected for the transfection efficiency with the β-Gal activity (luciferase (Luc); test compound 0.1 μM) |
| --- | --- | --- | --- | --- | --- |
| CCCc1ccc(N2Cc3cc(N(C)C)ccc3C2=O)cc1 [Compound 1, 5-dimethylamino-2-(4-propyl-phenyl)-isoindol-1-one] | 160 to 161 °C | – | – | – | – |
| CCCc1ccc(N2Cc3ccc(N(C)C)cc3C2=O)cc1 [Compound 2, 6-dimethylamino-2-(4-propyl-phenyl)-isoindol-1-one] | 141 to 142 °C | 2.8 | 3.0 | – | – |
| CCCCc1ccc(N2Cc3cc(N(C)C)ccc3C2=O)cc1 [Compound 3, 5-dimethylamino-2-(4-n-butyl-phenyl)-isoindol-1-one] | 133 to 134 °C | – | – | – | – |
| CC(C)c1ccc(N2Cc3cc(N(C)C)ccc3C2=O)cc1 [Compound 5, 5-dimethylamino-2-(4-isopropyl-phenyl)-isoindol-1-one] | 167 to 169 °C | – | – | – | – |
| CC(C)c1ccc(N2Cc3ccc(N(C)C)cc3C2=O)cc1 [Compound 6, 6-dimethylamino-2-(4-isopropyl-phenyl)-isoindol-1-one] | 169 to 170 °C | – | – | – | – |
| CCCCCCCc1ccc(N2Cc3cc(N(C)C)ccc3C2=O)cc1 [Compound 7, 5-dimethylamino-2-(4-n-heptyl-phenyl)-isoindol-1-one] | 133 to 134 °C | 1.1 | 1.1 | 1.0 | 1.1 |
| CCCCCCCc1ccc(N2Cc3ccc(N(C)C)cc3C2=O)cc1 [Compound 8, 6-dimethylamino-2-(4-n-heptyl-phenyl)-isoindol-1-one] | 101 to 102 °C | – | – | – | – |
| CCCCCCCCc1ccc(N2Cc3cc(N(C)C)ccc3C2=O)cc1 [Compound 9, 5-dimethylamino-2-(4-n-octyl-phenyl)-isoindol-1-one] | 128 to 129 °C | – | – | – | – |
| CCCCCCCCc1ccc(N2Cc3ccc(N(C)C)cc3C2=O)cc1 [Compound 10, 6-dimethylamino-2-(4-n-octyl-phenyl)-isoindol-1-one] | 100 to 101 °C | 0.3 | 0.4 | 0.9 | 0.7 |
| CN(C)c1ccc2c(c1)CN(c1ccc(C3CCCCC3)cc1)C2=O [Compound 11, 5-dimethylamino-2-(4-cyclohexyl-phenyl)-isoindol-1-one] | – | 2.1 | 2.6 | – | – |
| CN(C)c1cccc2c1C(=O)N(c1ccccc1)C2 [Compound 13, 7-dimethylamino-2-phenyl-2,3-dihydro-isoindol-1-one] | 58 to 60 °C | – | – | – | – |
| COc1ccc(N2Cc3cccc(N(C)C)c3C2=O)cc1 [Compound 14, 7-dimethylamino-2-(4-methoxyphenyl)-2,3-dihydro-isoindol-1-one] | 145 to 146 °C | 3.1 | 2.4 | 1.9 | 2.6 |
| CCOC(=O)CCCc1ccc(N2Cc3cc(N(C)C)ccc3C2=O)cc1 [Compound 15, 4-[4-(5-dimethylamino-1-oxo-1,3-dihydro-isoindol-2-yl)-phenyl]-butyric acid ethyl ester] | 116 to 117 °C | – | – | – | – |
| CN(C)c1ccc2c(c1)CN(c1ccc(CCCC(=O)O)cc1)C2=O [Compound 16, 4-[4-(5-dimethylamino-1-oxo-1,3-dihydro-isoindol-2-yl)-phenyl]-butyric acid] | 179 to 180 °C | – | – | – | – |
| CCOC(=O)CCCc1ccc(N2Cc3ccc(N(C)C)cc3C2=O)cc1 [Compound 17, 4-[4-(6-dimethylamino-1-oxo-1,3-dihydro-isoindol-2-yl)-phenyl]-butyric acid ethyl ester] | – | 0 | 0.0 | 0.2 | 0 |
| O=C(O)C=Cc1ccc(N2Cc3ccccc3C2=O)cc1 [Compound 24, 3-[4-(1-oxo-1,3-dihydro-isoindol-2-yl)-phenyl]-acrylic acid] | – | 0.5 | 0.4 | 0.9 | 0.7 |
| CN(C)c1ccc2c(c1)C(=O)N(c1ccc(CCCC(=O)OC(C)(C)C)cc1)C2 [Compound 31, 4-[4-(6-dimethylamino-1-oxo-1,3-dihydro-isoindol-2-yl)-phenyl]-butyric acid tert-butyl ester] | – | 0.1 | 0.0 | 0.8 | 0.4 |

Further lines, with some results ahead:

| melting point | SMILES | activity of Luc corrected for the transfection efficiency with the β-Gal activity (luciferase (Luc); test compound 1 μM) | activity of Luc corrected for the transfection efficiency with the β-Gal activity (luciferase (Luc); test compound 10 μM) | activity of Luc corrected for the transfection efficiency with the β-Gal activity (luciferase (Luc); test compound 0.01 μM) | activity of Luc corrected for the transfection efficiency with the β-Gal activity (luciferase (Luc); test compound 0.1 μM) |
| --- | --- | --- | --- | --- | --- |
| 186 to 187 °C | CN(C)c1ccc2c(c1)C(=O)N(c1ccc(CCCC(=O)O)cc1)C2 [Compound 18, 4-[4-(6-dimethylamino-1-oxo-1,3-dihydro-isoindol-2-yl)-phenyl]-butyric acid] | 0.0 | 0.0 | 0.1 | 0 |
| 94 to 96 °C | CCOC(=O)CCCc1ccc(N2Cc3ccccc3C2=O)cc1 [Compound 19, 4-[4-(1-oxo-1,3-dihydro-isoindol-2-yl)-phenyl]-butyric acid ethyl ester] | – | – | – | – |
| 128 to 129 °C | O=C(O)CCCc1ccc(N2Cc3ccccc3C2=O)cc1 [Compound 20, 4-[4-(1-oxo-1,3-dihydro-isoindol-2-yl)-phenyl]-butyric acid] | – | – | – | – |
| 123 to 124 °C | COC(=O)CCc1ccc(N2Cc3ccc(N(C)C)cc3C2=O)cc1 [Compound 21, 3-[4-(6-dimethylamino-1-oxo-1,3-dihydro-isoindol-2-yl)-phenyl]-propionic acid methyl ester] | – | – | – | – |
| 200 to 201 °C | CN(C)c1ccc2c(c1)C(=O)N(c1ccc(CCC(=O)O)cc1)C2 [Compound 22, 3-[4-(6-dimethylamino-1-oxo-1,3-dihydro-isoindol-2-yl)-phenyl]-propionic acid] | – | – | – | – |
| 184 to 185 °C | CCOC(=O)C=Cc1ccc(N2Cc3ccccc3C2=O)cc1 [Compound 23, 3-[4-(1-oxo-1,3-dihydro-isoindol-2-yl)-phenyl]-acrylic acid ethyl ester] | 0.6 | 0.5 | 0.8 | 0.9 |
| 238 to 239 °C | COC(=O)COc1ccc(N2Cc3ccc([N+](=O)[O-])cc3C2=O)cc1 [Compound 25, [4-(6-nitro-1-oxo-1,3-dihydro-isoindol-2-yl)-phenoxy]-acetic acid methyl ester] | – | – | – | – |
| 197 to 198 °C | COC(=O)COc1ccc(N2Cc3ccc(N)cc3C2=O)cc1 [Compound 26, [4-(6-amino-1-oxo-1,3-dihydro-isoindol-2-yl)-phenoxy]-acetic acid methyl ester] | – | – | – | – |
| 167 to 168 °C | COC(=O)COc1ccc(N2Cc3ccc(N(C)C)cc3C2=O)cc1 [Compound 27, [4-(6-dimethylamino-1-oxo-1,3-dihydro-isoindol-2-yl)-phenoxy]-acetic acid methyl ester] | – | – | – | – |
| 68 to 69 °C | CCCCCCCNc1cccc2c1CN(c1cc(C)cc(C)c1)C2=O [Compound 33, 2-(3,5-dimethyl-phenyl)-4-heptylamino-2,3-dihydro-isoindol-1-one] | – | – | – | – |
| 127 to 128 °C | CN(C)c1cccc(C(=O)Nc2ccc(CCCC(=O)O)cc2)c1 [Compound 34, 4-[4-(3-dimethylamino-benzoylamino)-phenyl]-butyric acid] | – | – | – | – |
| 108 to 109 °C | CCOC(=O)CCCc1ccc(NC(=O)c2cc([N+](=O)[O-])ccc2C)cc1 [Compound 37, 4-[4-(2-methyl-5-nitro-benzoylamino)-phenyl]-butyric acid ethyl ester] | – | – | – | – |
| 172 to 173 °C | Cc1ccc([N+](=O)[O-])cc1C(=O)Nc1ccc(CCCC(=O)O)cc1 [Compound 38, 4-[4-(2-methyl-5-nitro-benzoylamino)-phenyl]-butyric acid] | – | – | – | – |
| 126 to 127 °C | CCOC(=O)CCCc1ccc(NC(=O)c2cc(C)ccc2[N+](=O)[O-])cc1 [Compound 39, 4-[4-(5-methyl-2-nitro-benzoylamino)-phenyl]-butyric acid ethyl ester] | – | – | – | – |
